Reference: patent US20240182910A1, “DRUG-REGULATABLE TRANSCRIPTION FACTORS” (Senti Biosciences, Inc., priority 2021, published 2024)

How the values were obtained:
AlcR = AlcR (Emericella nidulans, UniProt P21228); parameters: key: A, activation; DA, deactivation; DR, derepression; conditions: AIR; PAIR (OalcA-PhCMVmin); cited from earlier work
[1] = biological target: T1, mifepristone-inducible transcription factor (Homo sapiens, UniProt P06401, V660L); assay: Transduction assay: mCherry reporter expression, mifepristone-inducible transcription factor; assay type: cell-based; conditions: U87-MG reporter cells, cell group E; 0, 1, 100, 1000 or 10000 nM mifepristone; FIG. 4
T1 construct: expressed in transfected cells; host or cells: U87-MG reporter cells, lentiviral transduction
T1 sequence (P06401 with tags, fused parts or gaps V660L): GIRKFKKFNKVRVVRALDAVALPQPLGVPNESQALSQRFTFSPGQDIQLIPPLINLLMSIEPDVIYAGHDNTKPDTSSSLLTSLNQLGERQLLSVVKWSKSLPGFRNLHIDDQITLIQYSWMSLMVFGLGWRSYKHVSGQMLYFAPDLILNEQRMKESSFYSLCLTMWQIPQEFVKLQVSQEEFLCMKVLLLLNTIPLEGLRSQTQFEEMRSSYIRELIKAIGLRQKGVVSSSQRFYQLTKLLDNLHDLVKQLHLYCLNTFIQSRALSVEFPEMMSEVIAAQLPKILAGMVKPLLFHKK
Description: On day 1, reporter cells were transduced with lentivirus encoding the mifepristone-inducible transcription factor construct.
To assay for mifepristone-regulated transcription modulation, cell group E was thawed and four days later, the cells were split into a 48-well plate and treated with 0 nM, 1 nM, 100 nM, 1000 nM, or 10000 nM mifepristone. Six days after the cells were thawed, cells were trypsinized and then resuspended in FACS buffer plus Sytox Red (fluoresces in APC channel) viability dye. Cell mCherry geometric mean fluorescent intensity (gMFI) was measured at each concentration and normalized to no drug as shown in FIG. 4.

Sequence of AlcR (P21228 whole entry): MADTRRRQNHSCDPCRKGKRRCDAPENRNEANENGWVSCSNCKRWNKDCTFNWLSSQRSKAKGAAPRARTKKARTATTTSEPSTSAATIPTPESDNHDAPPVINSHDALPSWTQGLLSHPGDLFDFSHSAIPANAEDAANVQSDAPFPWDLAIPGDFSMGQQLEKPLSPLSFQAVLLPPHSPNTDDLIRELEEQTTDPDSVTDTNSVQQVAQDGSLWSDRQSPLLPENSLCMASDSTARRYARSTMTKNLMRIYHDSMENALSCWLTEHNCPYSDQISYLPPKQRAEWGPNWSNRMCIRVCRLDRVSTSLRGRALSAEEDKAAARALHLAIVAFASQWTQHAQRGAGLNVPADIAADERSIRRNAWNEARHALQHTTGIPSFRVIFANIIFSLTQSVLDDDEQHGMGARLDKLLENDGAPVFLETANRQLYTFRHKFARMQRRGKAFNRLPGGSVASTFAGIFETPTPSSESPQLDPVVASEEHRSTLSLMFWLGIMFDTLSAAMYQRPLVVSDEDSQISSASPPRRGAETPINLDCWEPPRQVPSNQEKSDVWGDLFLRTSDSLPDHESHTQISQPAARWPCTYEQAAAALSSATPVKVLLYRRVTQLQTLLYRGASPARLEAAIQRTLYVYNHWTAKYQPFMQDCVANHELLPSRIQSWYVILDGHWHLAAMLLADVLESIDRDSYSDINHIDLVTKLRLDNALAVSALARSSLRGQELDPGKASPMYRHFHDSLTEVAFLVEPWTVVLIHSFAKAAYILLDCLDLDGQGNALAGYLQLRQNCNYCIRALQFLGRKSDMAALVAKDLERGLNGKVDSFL

Row | SMILES | Response to inducer: T (transgene transcription) (AlcR) | mCherry expression (mCherry gMFI normalized to no drug) [1]
1 | CC=O [Acetaldehyde] | A | –
2 | CC#C[C@]1(O)CC[C@H]2[C@@H]3CCC4=CC(=O)CCC4=C3[C@@H](c3ccc(N(C)C)cc3)C[C@@]21C [mifepristone] | – | induced mCherry expression in the presence of drug in a concentration-dependent manner
